# Patent US7786152B2, “Compound” (priority 2002, dated 2010)
# Molecular target: T1, 11 β-HSD type 1 (Rattus norvegicus, UniProt P16232)
# T1 construct: Both the kidneys and livers were homogenised on ice in PBS-sucrose buffer; tissue Harlan Olac (rats); host or cells: Wistar rat liver homogenate supernatant
# Test: 11 β-HSD type 1 inhibition, rat liver homogenate, conversion E to F (radiometric TLC)
# Type: biochemical
# Conditions: for inhibition at 10 µM: read-out: % inhibition of 11β HSD1 @ 10 μM, 10 μM, typical sd ± 5%, means n=2; for IC50: dose-response 1, 5, 10 and 20 μM, read-out: IC50 (11β HSD1)
# Method: Enzymes—Rat livers and rat kidneys were obtained from normal Wistar rats (Harlan Olac, Bicester, Oxon, UK). Both the kidneys and livers were homogenised on ice in PBS-sucrose buffer (1 g/10 ml) using an Ultra-Turrax. After the livers and kidneys were homogenised the homogenate was centrifuged for five minutes at 4000 rpm. The supernatant obtained was removed and stored in glass vials at −20° C. The amount of protein per μl of rat liver and kidney cytosol was determined using the Bradford method.
# 11 β-HSD type 1 is the enzyme responsible for the conversion E to F and this type of enzyme is present in rat liver. The substrate solution used in this assay contained 70,000 cpm/ml ^3H-E in PBS-sucrose and 0.5 μM of unlabelled E and co-factor NADPH (9 mg/10 ml of substrate solution). 1 ml of the substrate solution and the different amounts of rat liver homogenate was added to all tubes.
# The amount of rat liver homogenate needed for an assay was determined by incubating the substrate solution with 25, 50, 100 and 150 μl for 30, 60, 90 and 120 minutes at 37° C. in a water bath with the tubes being mechanically shaken. After the incubation 50 μL of recovery solution was added, containing about 8,000 cpm/50 μL of ^14C—F and 50 μg/50 μL of unlabelled F for visualising the spot on the TLC-plate, to correct for the losses made in the next two steps. F was then extracted from the aqueous phase with 4 ml of ether (2×30 sec cycle, vortex mix). The aqueous phase was then frozen using dry-ice and the organic layer was decanted and poured into smaller tubes and evaporated. 6 drops of ether were then added to the small tubes to re-dissolve the residue which was transferred to an aluminium thin layer chromatography plate (TLC-plate). The TLC-plate was developed in a TLC tank under saturated conditions. The solvent system used was chloroform:methanol 9:1 (v/v). The F spots on the TLC-plate were visualised under UV-light and cut out from the TLC-plate (Rf=0.45). The spots from the TLC-plate were then put into scintillation vials and 0.5 ml of methanol was added to all vials to elute the radioactivity from the TLC-plate for 5 minutes. 10 ml of Ecoscint was added to the scintillation vials and they were put into the scintillation counter to count amount of product formed.
# In these assays the influence of different inhibitors on the 11 β-HSD activity both in reductive (type 1) and oxidative (type 2) directions were assessed. In the reductive direction E is the substrate and F the product and visa versa in the case of oxidation. The method described here is for the oxidative direction.
# The substrate solution contained about 50,000 cpm/ml ^3H—F in PBS-sucrose and 0.5 μM F. 1 ml of the substrate solution was added to each tube, the inhibitors were also added, at a 10 μM concentration, to each tube except to the “control” and “blank” tubes. 150 μL was added to all tubes except to the blanks, this was done to correct for the amount of ^3H—F spontaneously formed. The tubes were incubated for 60 minutes in a mechanically shaken water bath at 37° C. The amount of kidney liver homogenate and incubation time used resulted from the enzyme- and time-dependency assay. After incubation 50 μL of recovery was added to correct for the losses made in the next steps, containing 5000 cpm/50 μL of ^14C-E and 50 μg/50 μL of unlabelled E (to visualise the spot on the TLC-plate). The aqueous mixture was then extracted with 4 ml of ether (2×30 sec cycle, vortex mix). After freezing the aqueous phase, the ether (upper) layer was decanted into smaller tubes and evaporated at 45° C. until completely dry. The residue was then re-dissolved in 6 drops of ether and transferred to a TLC-plate. The TLC-plate was developed in chloroform:methanol (9:1 v/v) solvent system, the TLC-plate ran for about 90 minutes until the solvent front had moved about 18 cm. The position of the product E was visualised under UV-light and cut out from the TLC-plate and put into scintillation vials. […]
# T1 sequence (P16232 whole entry): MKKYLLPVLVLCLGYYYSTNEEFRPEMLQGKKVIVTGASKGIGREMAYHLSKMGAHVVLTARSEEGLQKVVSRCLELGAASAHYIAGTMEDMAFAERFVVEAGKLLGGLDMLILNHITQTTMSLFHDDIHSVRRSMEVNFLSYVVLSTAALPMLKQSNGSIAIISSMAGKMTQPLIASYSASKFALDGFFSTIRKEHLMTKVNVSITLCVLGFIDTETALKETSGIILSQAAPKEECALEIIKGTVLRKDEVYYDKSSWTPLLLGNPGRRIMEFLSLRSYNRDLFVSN
SMILES,inhibition at 10 µM,IC50
CCSc1nc2ccc(NS(=O)(=O)c3cccc(Cl)c3C)cc2s1 [compound 751],10%,–
Cc1nc2cc(NS(=O)(=O)c3ccc(Br)cc3C)ccc2s1 [compound 523],21%,–
Cc1nc2cc(NS(=O)(=O)c3cccc4cccnc34)ccc2s1 [compound 552],18%,–
Cc1nc2cc(NS(=O)(=O)c3ccc(Cl)cc3Cl)ccc2s1 [compound 412],27%,–
Cc1nc2cc(NS(=O)(=O)c3cccc(Cl)c3C)ccc2s1 [compound 413],53%,6.6 µM
Cc1nc2cc(NS(=O)(=O)c3ccc(C(C)C)cc3)ccc2s1 [compound 704],38%,–
COc1cc(C)ccc1S(=O)(=O)Nc1ccc2sc(C)nc2c1 [compound 584],48%,–
Cc1nc2cc(NS(=O)(=O)c3c(C)c(C)c(C)c(C)c3C)ccc2s1 [compound 710],55%,–
Cc1nc2cc(NS(=O)(=O)c3c(Cl)cc(Cl)cc3Cl)ccc2s1 [compound 522],37%,–
COc1ccc(S(=O)(=O)Nc2ccc3sc(C)nc3c2)cc1 [compound 424],24%,–
Cc1nc2cc(NS(=O)(=O)c3c(C)cccc3Cl)ccc2s1 [compound 425],40%,–
Cc1nc2cc(N(C)S(=O)(=O)c3cccc(Cl)c3C)ccc2s1 [compound 469],63%,–
CC(=O)c1ccccc1S(=O)(=O)Nc1ccc2sc(C)nc2c1 [compound 701],34%,–
Cc1nc2cc(NS(=O)(=O)c3c(C(C)C)cc(C(C)C)cc3C(C)C)ccc2s1 [compound 703],35%,–
Cc1nc2cc(NS(=O)(=O)c3cc(Cl)ccc3Cl)ccc2s1 [compound 580],75%,–
CCCc1ccc(S(=O)(=O)Nc2ccc3sc(C)nc3c2)cc1 [compound 421],60%,10 µM
Cc1nc2cc(NS(=O)(=O)c3ccc4c(c3)CN(C(=O)C(F)(F)F)CC4)ccc2s1 [compound 581],77%,–
Cc1nc2cc(NS(=O)(=O)c3cccc4ccccc34)ccc2s1 [compound 553],0.7%,–
Cc1nc2cc(NS(=O)(=O)c3ccc(C(C)(C)C)cc3)ccc2s1 [compound 709],10%,–
Cc1nc2cc(NS(=O)(=O)c3ccc(-c4ccccc4)cc3)ccc2s1 [compound 521],0.5%,–
Cc1nc2cc(NS(=O)(=O)c3cccc4c(N(C)C)cccc34)ccc2s1 [compound 554],69%,–
COC(=O)c1ccccc1S(=O)(=O)Nc1ccc2sc(C)nc2c1 [compound 705],6%,–
Cc1nc2cc(NS(=O)(=O)c3ccc(Br)cc3)ccc2s1 [compound 519],48%,–
COc1c(C)c(C)c(S(=O)(=O)Nc2ccc3sc(C)nc3c2)c(C)c1C [compound 708],39%,–
Cc1nc2cc(NS(=O)(=O)c3ccccc3C#N)ccc2s1 [compound 583],29%,–
Cc1nc2cc(NS(=O)(=O)c3ccc(Oc4ccccc4)cc3)ccc2s1 [compound 585],48%,–
CCN(c1ccc2sc(C)nc2c1)S(=O)(=O)c1cccc(Cl)c1C [compound 470],39%,–
COc1ccc(Cl)cc1S(=O)(=O)Nc1ccc2sc(C)nc2c1 [compound 582],40%,–
